Organism: Rattus norvegicus
Experiment: DrugMatrix - Regimen: Daily Repeat
Format: toxicity, organism-based, Sprague-Dawley
Set-up: regimen Daily Repeat, gender Male, age 6-8 weeks
Details: in vivo, po, route oral GAVAGE, vehicle 100 % WATER; for ABSOLUTE BASOPHIL / ABSOLUTE EOSINOPHIL / ABSOLUTE LYMPHOCYTE / ABSOLUTE MONOCYTE / ABSOLUTE SEGMENTED NEUTROPHIL / BASOPHIL / EOSINOPHIL / ERYTHROCYTE COUNT / HEMATOCRIT / HEMOGLOBIN / LEUKOCYTE COUNT / LYMPHOCYTE / MEAN CORPUSCULAR HEMOGLOBIN / MEAN CORPUSCULAR HEMOGLOBIN CONCENTRATION / MEAN CORPUSCULAR VOLUME / MONOCYTE / NEUTROPHIL / NUCLEATED RED BLOOD CELLS / PLATELET COUNT: tissue Blood; for ALANINE AMINOTRANSFERASE / ALBUMIN / ALKALINE PHOSPHATASE / ASPARTATE AMINOTRANSFERASE / BLOOD UREA NITROGEN / CARBON DIOXIDE / CHLORIDE / CHOLESTEROL / CREATINE PHOSPHOKINASE / CREATININE / GLUCOSE / LACTATE DEHYDROGENASE / LIPASE / PHOSPHORUS / POTASSIUM / SODIUM / TOTAL BILIRUBIN / TOTAL PROTEIN / URIC ACID: tissue Plasma
[1] = 0 mg/kg, 72 h, dose level Control, time 3 day
[2] = 0 mg/kg, 120 h, dose level Control, time 5 day
[3] = 50 mg/kg, 72 h, dose level Low, time 3 day

## Cc1ncc([N+](=O)[O-])n1CCO [METRONIDAZOLE]
[1]
  ABSOLUTE BASOPHIL: 0 CELLS/uL
  ABSOLUTE EOSINOPHIL: 86.33 CELLS/uL
  ABSOLUTE LYMPHOCYTE: 12090.17 CELLS/uL
  ABSOLUTE MONOCYTE: 166.67 CELLS/uL
  ABSOLUTE SEGMENTED NEUTROPHIL: 1090.17 CELLS/uL
  BASOPHIL: 0%
  EOSINOPHIL: 0.67%
  ERYTHROCYTE COUNT: 5.57 x10E6/uL
  HEMATOCRIT: 35.33%
  HEMOGLOBIN: 13.83 G/DL
  LEUKOCYTE COUNT: 13.43 x10E3/uL
  LYMPHOCYTE: 89.83%
  MEAN CORPUSCULAR HEMOGLOBIN: 24.88 pg
  MEAN CORPUSCULAR HEMOGLOBIN CONCENTRATION: 39.15 G/DL
  MEAN CORPUSCULAR VOLUME: 63.52 fL
  MONOCYTE: 1.17%
  NEUTROPHIL: 8.33%
  NUCLEATED RED BLOOD CELLS: 0 /100WBC
  PLATELET COUNT: 1181.33 x10E3/uL
  ALANINE AMINOTRANSFERASE: 48.33 u/L
  ALBUMIN: 4.1 G/DL
  ALKALINE PHOSPHATASE: 395 u/L
  ASPARTATE AMINOTRANSFERASE: 81.83 u/L
  BLOOD UREA NITROGEN: 15.83 mg/dL
  CARBON DIOXIDE: 24.17 mmol/L
  CHLORIDE: 103.83 MEQ/L
  CHOLESTEROL: 63.67 mg/dL
  CREATINE PHOSPHOKINASE: 372.83 u/L
  CREATININE: 0.18 mg/dL
  GLUCOSE: 173.83 mg/dL
  LACTATE DEHYDROGENASE: 188.33 u/L
  LIPASE: 9.5 u/L
  PHOSPHORUS: 11.95 mg/dL
  POTASSIUM: 5.99 MEQ/L
  SODIUM: 144.43 MEQ/L
  TOTAL BILIRUBIN: 0.15 mg/dL
  TOTAL PROTEIN: 5.95 G/DL
  URIC ACID: 1.82 mg/dL
[2]
  ABSOLUTE BASOPHIL: 0 CELLS/uL
  ABSOLUTE EOSINOPHIL: 26.67 CELLS/uL
  ABSOLUTE LYMPHOCYTE: 7583.83 CELLS/uL
  ABSOLUTE MONOCYTE: 131.33 CELLS/uL
  ABSOLUTE SEGMENTED NEUTROPHIL: 674.83 CELLS/uL
  BASOPHIL: 0%
  EOSINOPHIL: 0.33%
  ERYTHROCYTE COUNT: 5.78 x10E6/uL
  HEMATOCRIT: 36.48%
  HEMOGLOBIN: 14.03 G/DL
  LEUKOCYTE COUNT: 8.42 x10E3/uL
  LYMPHOCYTE: 89.83%
  MEAN CORPUSCULAR HEMOGLOBIN: 24.3 pg
  MEAN CORPUSCULAR HEMOGLOBIN CONCENTRATION: 38.52 G/DL
  MEAN CORPUSCULAR VOLUME: 63.15 fL
  MONOCYTE: 1.67%
  NEUTROPHIL: 8.17%
  NUCLEATED RED BLOOD CELLS: 0 /100WBC
  PLATELET COUNT: 1186.67 x10E3/uL
  ALANINE AMINOTRANSFERASE: 50.17 u/L
  ALBUMIN: 4.07 G/DL
  ALKALINE PHOSPHATASE: 367.5 u/L
  ASPARTATE AMINOTRANSFERASE: 81.67 u/L
  BLOOD UREA NITROGEN: 16.17 mg/dL
  CARBON DIOXIDE: 32.33 mmol/L
  CHLORIDE: 101.5 MEQ/L
  CHOLESTEROL: 65.33 mg/dL
  CREATINE PHOSPHOKINASE: 255.33 u/L
  CREATININE: 0.17 mg/dL
  GLUCOSE: 139.33 mg/dL
  LACTATE DEHYDROGENASE: 95 u/L
  LIPASE: 10.5 u/L
  PHOSPHORUS: 10.38 mg/dL
  POTASSIUM: 6.11 MEQ/L
  SODIUM: 145.55 MEQ/L
  TOTAL BILIRUBIN: 0.17 mg/dL
  TOTAL PROTEIN: 5.98 G/DL
  URIC ACID: 0.93 mg/dL
[3]
  ABSOLUTE BASOPHIL: 0 CELLS/uL
  ABSOLUTE EOSINOPHIL: 59.33 CELLS/uL
  ABSOLUTE LYMPHOCYTE: 15201.67 CELLS/uL
  ABSOLUTE MONOCYTE: 170 CELLS/uL
  ABSOLUTE SEGMENTED NEUTROPHIL: 1569 CELLS/uL
  BASOPHIL: 0%
  EOSINOPHIL: 0.33%
  ERYTHROCYTE COUNT: 5.47 x10E6/uL
  HEMATOCRIT: 35.2%
  HEMOGLOBIN: 13.83 G/DL
  LEUKOCYTE COUNT: 17 x10E3/uL
  LYMPHOCYTE: 88.67%
  MEAN CORPUSCULAR HEMOGLOBIN: 25.3 pg
  MEAN CORPUSCULAR HEMOGLOBIN CONCENTRATION: 39.3 G/DL
  MEAN CORPUSCULAR VOLUME: 64.4 fL
  MONOCYTE: 1%
  NEUTROPHIL: 10%
  NUCLEATED RED BLOOD CELLS: 0 /100WBC
  PLATELET COUNT: 1236.33 x10E3/uL
  ALANINE AMINOTRANSFERASE: 54.33 u/L
  ALBUMIN: 3.9 G/DL
  ALKALINE PHOSPHATASE: 296.67 u/L
  ASPARTATE AMINOTRANSFERASE: 72 u/L
  BLOOD UREA NITROGEN: 13.67 mg/dL
  CARBON DIOXIDE: 28.33 mmol/L
  CHLORIDE: 100.67 MEQ/L
  CHOLESTEROL: 65 mg/dL
  CREATINE PHOSPHOKINASE: 186.33 u/L
  CREATININE: 0.12 mg/dL
  GLUCOSE: 155.67 mg/dL
  LACTATE DEHYDROGENASE: 82.33 u/L
  LIPASE: 9.33 u/L
  PHOSPHORUS: 12.27 mg/dL
  POTASSIUM: 6.41 MEQ/L
  SODIUM: 142.37 MEQ/L
  TOTAL BILIRUBIN: 0.17 mg/dL
  TOTAL PROTEIN: 5.6 G/DL
  URIC ACID: 1.5 mg/dL
